# In patent publication US11472808B2, “Substituted pyrrolo[1,2-c]pyrimidines as hepatitis B antiviral agents” (Enanta Pharmaceuticals, Inc., priority 2019, dated 2022):
# How the values were obtained:
# [1] = Compound toxicity, ATPLite total ATP levels; assay type: cell-based; conditions: human, HepG2 cells; concentration reducing total ATP levels by 50% relative to no drug controls; ATPLite three days after compound addition
# Procedure: Compound toxicity is evaluated by seeding cells at 15,000 cells/well and treating with compound as described above.
# HBV = experiment: HepAD38 anti-HBV assay: reduction of viral product accumulation (virion DNA qPCR, HBsAg/HBeAg ELISA); assay type: cell-based; conditions: Hepatitis B virus, 120 h; HepAD38 cells; concentration reducing viral product accumulation by 50% relative to no drug controls; harvest five days after compound addition; read-out: HepAD38 EC50
# Method in brief: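 Tetracycline-free HepAD38 cells treated 5 days with compound (1:200 DMSO dilution), or 8 days with media and compound refreshed on d2 and d5. Virion DNA quantified by qPCR; HBsAg or HBeAg by ELISA. EC50 is the concentration reducing viral product accumulation 50% versus no-drug controls.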
smiles,measurement,setting,value
CN(CCO)S(=O)(=O)N[C@H]1CC2=C(c3ccn(C(F)F)n3)[C@H](c3ccc(F)cc3Cl)N=C(c3nccs3)N2C1 [Example 81],CC50 at 3 days,[1],> 25 µM
same,EC50,HBV,< 0.1 µM
O=C1OCCN1S(=O)(=O)N[C@H]1CC2=C(c3ccn(C(F)F)n3)[C@H](c3ccc(F)cc3Cl)N=C(c3nccs3)N2C1 [Example 72],CC50 at 3 days,[1],> 25 µM
same,EC50,HBV,< 0.1 µM
CC1(O)CCN(S(=O)(=O)N[C@H]2CC3=C(c4ccn(C(F)F)n4)[C@H](c4ccc(F)cc4Cl)N=C(c4nccs4)N3C2)CC1 [Example 256],CC50 at 3 days,[1],> 25 µM
same,EC50,HBV,< 0.1 µM
O=S(=O)(N[C@H]1CC2=C(c3ccn(C(F)F)n3)[C@H](c3ccc(F)cc3Cl)N=C(c3nccs3)N2C1)N[C@H]1C[C@@H](O)C1 [Example 156],CC50 at 3 days,[1],> 25 µM
same,EC50,HBV,< 0.1 µM
O=S(=O)(N[C@H]1CC2=C(c3ccn(C(F)F)n3)[C@H](c3ccc(F)cc3Cl)N=C(c3nccs3)N2C1)N1CCC(O)(C2CCCC2)CC1 [Example 267],CC50 at 3 days,[1],> 25 µM
same,EC50,HBV,< 0.1 µM
O=C1CCCN1C1CCN(S(=O)(=O)N[C@H]2CC3=C(c4ccn(C(F)F)n4)[C@H](c4ccc(F)cc4Cl)N=C(c4nccs4)N3C2)CC1 [Example 293],CC50 at 3 days,[1],> 25 µM
same,EC50,HBV,< 0.1 µM
O=S(=O)(N[C@H]1CC2=C(c3ccn(C(F)F)n3)[C@H](c3ccc(F)cc3Cl)N=C(c3nccs3)N2C1)[C@H]1CC[C@](O)(CO)CC1 [Example 100],CC50 at 3 days,[1],> 25 µM
same,EC50,HBV,< 0.1 µM
O=S(=O)(N[C@H]1CC2=C(c3ccn(C(F)F)n3)[C@H](c3ccc(F)cc3Cl)N=C(c3nccs3)N2C1)N1CCC(O)(c2ccncc2)CC1 [Example 259],CC50 at 3 days,[1],> 25 µM
same,EC50,HBV,< 0.1 µM
CS(=O)(=O)Nc1ccc(S(=O)(=O)N[C@H]2CC3=C(c4ccn(C(F)F)n4)[C@H](c4ccc(F)cc4Cl)N=C(c4nccs4)N3C2)cc1 [Example 357],CC50 at 3 days,[1],> 25 µM
same,EC50,HBV,< 0.1 µM
O=S(=O)(N[C@H]1CC2=C(c3ccn(C(F)F)n3)[C@H](c3ccc(F)cc3Cl)N=C(c3nccs3)N2C1)c1cccc(-c2cccnc2)n1 [Example 378],CC50 at 3 days,[1],> 25 µM
same,EC50,HBV,< 0.1 µM
O=S(=O)(N[C@H]1CC2=C(c3ccn(C(F)F)n3)[C@H](c3ccc(F)cc3Cl)N=C(c3nccs3)N2C1)N1C[C@H](F)[C@@H](F)C1 [Example 275],CC50 at 3 days,[1],10 to 25 µM
same,EC50,HBV,< 0.1 µM
N#CCCCS(=O)(=O)N[C@H]1CC2=C(c3ccn(C(F)F)n3)[C@H](c3ccc(F)cc3Cl)N=C(c3nccs3)N2C1 [Example 135],CC50 at 3 days,[1],> 25 µM
same,EC50,HBV,< 0.1 µM
O=C1NC[C@H](CNC(=O)c2cccc(S(=O)(=O)N[C@H]3CC4=C(c5ccn(C(F)F)n5)[C@H](c5ccc(F)cc5Cl)N=C(c5nccs5)N4C3)c2)O1 [Example 421],CC50 at 3 days,[1],> 25 µM
same,EC50,HBV,< 0.1 µM
O=S(=O)(N[C@H]1CC2=C(c3ccn(C(F)F)n3)[C@H](c3ccc(F)cc3Cl)N=C(c3nccs3)N2C1)N1CCC[C@@H]1C(F)(F)F [Example 287],CC50 at 3 days,[1],10 to 25 µM
same,EC50,HBV,< 0.1 µM
C[C@]1(O)CC[C@H](c2ccc(S(=O)(=O)N[C@H]3CC4=C(c5ccn(C(F)F)n5)[C@H](c5ccc(F)cc5Cl)N=C(c5nccs5)N4C3)cc2)CC1 [Example 411],CC50 at 3 days,[1],10 to 25 µM
same,EC50,HBV,< 0.1 µM
C[C@]1(O)CC[C@@H](c2ccc(S(=O)(=O)N[C@H]3CC4=C(c5ccn(C(F)F)n5)[C@H](c5ccc(F)cc5Cl)N=C(c5nccs5)N4C3)cc2)CC1 [Example 410],CC50 at 3 days,[1],> 25 µM
same,EC50,HBV,< 0.1 µM
O=S(=O)(CCl)N[C@H]1CC2=C(c3ccn(C(F)F)n3)[C@H](c3ccc(F)cc3Cl)N=C(c3nccs3)N2C1 [Example 70],CC50 at 3 days,[1],> 25 µM
same,EC50,HBV,< 0.1 µM
O=S(=O)(N[C@H]1CC2=C(c3ccn(C(F)F)n3)[C@H](c3ccc(F)cc3Cl)N=C(c3nccs3)N2C1)N1CCC(O)(c2cnc(C3CC3)s2)CC1 [Example 262],EC50,HBV,< 0.1 µM
O=C(O)Cc1cccc(S(=O)(=O)N[C@H]2CC3=C(c4ccn(C(F)F)n4)[C@H](c4ccc(F)cc4Cl)N=C(c4nccs4)N3C2)c1 [Example 33],EC50,HBV,0.1 to 0.4 µM
O/N=C/[C@]1(F)CC2=C(c3ccn(C(F)F)n3)[C@H](c3ccc(F)cc3Cl)N=C(c3nccs3)N2C1 [Example 179],EC50,HBV,> 0.4 µM
O=S(=O)(C[C@@H]1CC2=C(c3ccn(C(F)F)n3)[C@H](c3ccc(F)cc3Cl)N=C(c3nccs3)N2C1)N1CCCCC1 [Example 298],EC50,HBV,0.1 to 0.4 µM
C=CCNC[C@@]1(O)CC2=C(c3ccn(C(F)F)n3)[C@H](c3ccc(F)cc3Cl)N=C(c3nccs3)N2C1 [Example 116],EC50,HBV,> 0.4 µM
CC(C)NC(=O)N[C@H]1CC2=C(c3ccn(C(F)F)n3)[C@H](c3ccc(F)cc3Cl)N=C(c3nccs3)N2C1 [Example 204],EC50,HBV,< 0.1 µM
O=S(=O)(N[C@H]1CC2=C(c3ccn(C(F)F)n3)[C@H](c3ccc(F)cc3Cl)N=C(c3nccs3)N2C1)C1(C[C@H](O)CO)CC1 [Example 425],EC50,HBV,< 0.1 µM
O=S(=O)(Nc1ccc(C(O)c2ccccn2)cc1)N[C@H]1CC2=C(c3ccn(C(F)F)n3)[C@H](c3ccc(F)cc3Cl)N=C(c3nccs3)N2C1 (stereo partly drawn) [Example 348],EC50,HBV,< 0.1 µM
O=S(=O)(N[C@H]1CC2=C(c3ccn(C(F)F)n3)[C@H](c3ccc(F)cc3Cl)N=C(c3nccs3)N2C1)c1ccc(-c2ccccn2)s1 [Example 400],EC50,HBV,< 0.1 µM
O=C(O)C1CCN(C(=O)N[C@H]2CC3=C(c4ccn(C(F)F)n4)[C@H](c4ccc(F)cc4Cl)N=C(c4nccs4)N3C2)CC1 [Example 212],EC50,HBV,0.1 to 0.4 µM
COC(=O)NC[C@]1(F)CC2=C(c3ccn(C(F)F)n3)[C@H](c3ccc(F)cc3Cl)N=C(c3nccs3)N2C1 [Example 185],EC50,HBV,0.1 to 0.4 µM
OCC[C@]1(F)CC2=C(c3ccn(C(F)F)n3)[C@H](c3ccc(F)cc3Cl)N=C(c3nccs3)N2C1 [Example 167],EC50,HBV,> 0.4 µM
CCOC(=O)Cn1cc(S(=O)(=O)N[C@H]2CC3=C(c4ccn(C(F)F)n4)[C@H](c4ccc(F)cc4Cl)N=C(c4nccs4)N3C2)cn1 [Example 38],EC50,HBV,> 0.4 µM
O=C(N[C@H]1CC2=C(c3ccn(C(F)F)n3)[C@H](c3ccc(F)cc3Cl)N=C(c3nccs3)N2C1)N1CCOCC1 [Example 207],EC50,HBV,< 0.1 µM
COC(=O)c1ccc(C#CCN2CCN([C@H]3CC4=C(c5ccn(C(F)F)n5)[C@H](c5ccc(F)cc5Cl)N=C(c5nccs5)N4C3)C2=O)cc1 [Example 42],EC50,HBV,> 0.4 µM
O=S(=O)(CCN1CCOCC1)N[C@H]1CC2=C(c3ccn(C(F)F)n3)[C@H](c3ccc(F)cc3Cl)N=C(c3nccs3)N2C1 [Example 56],EC50,HBV,0.1 to 0.4 µM
O=C(O)Cc1ccc(S(=O)(=O)N[C@H]2CC3=C(c4ccn(C(F)F)n4)[C@H](c4ccc(F)cc4Cl)N=C(c4nccs4)N3C2)cc1 [Example 37],EC50,HBV,> 0.4 µM
O=C(O)c1ccccc1S(=O)(=O)N[C@H]1CC2=C(c3ccn(C(F)F)n3)[C@H](c3ccc(F)cc3Cl)N=C(c3nccs3)N2C1 [Example 7],EC50,HBV,> 0.4 µM
Cc1ccc(C(=O)O)cc1S(=O)(=O)N[C@H]1CC2=C(c3ccn(C(F)F)n3)[C@H](c3ccc(F)cc3Cl)N=C(c3nccs3)N2C1 [Example 28],EC50,HBV,0.1 to 0.4 µM
O=C(O)c1ccc(C#CCN2CCN([C@H]3CC4=C(c5ccn(C(F)F)n5)[C@H](c5ccc(F)cc5Cl)N=C(c5nccs5)N4C3)C2=O)cc1 [Example 43],EC50,HBV,> 0.4 µM
COC(=O)c1ccccc1S(=O)(=O)N[C@H]1CC2=C(c3ccn(C(F)F)n3)[C@H](c3ccc(F)cc3Cl)N=C(c3nccs3)N2C1 [Example 4],EC50,HBV,0.1 to 0.4 µM
C[C@@H]1CN(S(=O)(=O)N[C@H]2CC3=C(c4ccn(C(F)F)n4)[C@H](c4ccc(F)cc4Cl)N=C(c4nccs4)N3C2)C[C@@H]1C [Example 299],EC50,HBV,< 0.1 µM
O=C(N[C@H]1CC2=C(c3ccn(C(F)F)n3)[C@H](c3ccc(F)cc3Cl)N=C(c3nccs3)N2C1)N1C[C@@H](O)[C@@H](O)C1 [Example 226],EC50,HBV,0.1 to 0.4 µM
O=C(O)C1CCCN1CCS(=O)(=O)N[C@H]1CC2=C(c3ccn(C(F)F)n3)[C@H](c3ccc(F)cc3Cl)N=C(c3nccs3)N2C1 (stereo partly drawn) [Example 65],EC50,HBV,> 0.4 µM
O=S(=O)(NCCCc1ccccn1)N[C@H]1CC2=C(c3ccn(C(F)F)n3)[C@H](c3ccc(F)cc3Cl)N=C(c3nccs3)N2C1 [Example 350],EC50,HBV,0.1 to 0.4 µM
CC(C)[C@]1(O)CC[C@H](c2ccc(S(=O)(=O)N[C@H]3CC4=C(c5ccn(C(F)F)n5)[C@H](c5ccc(F)cc5Cl)N=C(c5nccs5)N4C3)cc2)CC1 [Example 414],EC50,HBV,< 0.1 µM
COC(=O)Cc1cccc(S(=O)(=O)N[C@H]2CC3=C(c4ccn(C(F)F)n4)[C@H](c4ccc(F)cc4Cl)N=C(c4nccs4)N3C2)c1 [Example 31],EC50,HBV,< 0.1 µM
O=S(=O)(NCc1ncc[nH]1)N[C@H]1CC2=C(c3ccn(C(F)F)n3)[C@H](c3ccc(F)cc3Cl)N=C(c3nccs3)N2C1 [Example 314],EC50,HBV,0.1 to 0.4 µM
O=C(N[C@H]1CC2=C(c3ccn(C(F)F)n3)[C@H](c3ccc(F)cc3Cl)N=C(c3nccs3)N2C1)C1CCC(O)CC1 (stereo partly drawn) [Example 249],EC50,HBV,0.1 to 0.4 µM
CC(=O)OCCCS(=O)(=O)N[C@H]1CC2=C(c3ccn(C(F)F)n3)[C@H](c3ccc(F)cc3Cl)N=C(c3nccs3)N2C1 [Example 310],EC50,HBV,< 0.1 µM
CONC[C@]1(O)CC2=C(c3ccn(C(F)F)n3)[C@H](c3ccc(F)cc3Cl)N=C(c3nccs3)N2C1 [Example 127],EC50,HBV,> 0.4 µM
O=C1NC2(CCN(S(=O)(=O)N[C@H]3CC4=C(c5ccn(C(F)F)n5)[C@H](c5ccc(F)cc5Cl)N=C(c5nccs5)N4C3)CC2)CO1 [Example 162],EC50,HBV,< 0.1 µM
O=C(NCc1ccccn1)N[C@H]1CC2=C(c3ccn(C(F)F)n3)[C@H](c3ccc(F)cc3Cl)N=C(c3nccs3)N2C1 [Example 217],EC50,HBV,> 0.4 µM
O=S(=O)(Nc1ccccn1)N[C@H]1CC2=C(c3ccn(C(F)F)n3)[C@H](c3ccc(F)cc3Cl)N=C(c3nccs3)N2C1 [Example 320],EC50,HBV,0.1 to 0.4 µM
O=S(=O)(N[C@H]1CC2=C(c3ccn(C(F)F)n3)[C@H](c3ccc(F)cc3Cl)N=C(c3nccs3)N2C1)c1cccc(-c2ccccc2)n1 [Example 409],EC50,HBV,< 0.1 µM
